Measurements reported in the supplement of paper PMC10307832.

Legend:
Assay in all cases: relative viability (nuclei count vs DMSO), 5 days (fraction); higher = more cells survive
[1] = compound: CCC1=CN=CN=C1N2CCN(CC2)CC3=NC4=C(N3)C=C(C=C4)C(F)(F)F + CC1(C)CCC(c2ccc(Cl)cc2)=C(CN2CCN(c3ccc(C(=O)NS(=O)(=O)c4ccc(N[C@H](CCN5CCOCC5)CSc5ccccc5)c(S(=O)(=O)C(F)(F)F)c4)cc3)CC2)C1 [Navitoclax] (partner 0.5 µM)
How it was run: (§1)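 Lung cancer cell lines were pin-tool dosed in 1536-well plates on the day after seeding, with either a lone drug or a fixed anchor-drug dose plus five library-drug doses (not always all listed) in √10 steps. Nuclei were counted on 4× images after 5 days. Relative viability is the ratio of treated-well to vehicle-well nuclei counts, with each value a median of duplicate plates.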

[2] = compound: CCC1=CN=CN=C1N2CCN(CC2)CC3=NC4=C(N3)C=C(C=C4)C(F)(F)F + CS(=O)(=O)CCNCc1ccc(-c2ccc3ncnc(Nc4ccc(OCc5cccc(F)c5)c(Cl)c4)c3c2)o1 [Lapatinib] (partner 2 µM)
How it was run: as §1

[3] = compound: CCn1c(-c2nonc2N)nc2cnc(Oc3cccc(NC(=O)c4ccc(OCCN5CCOCC5)cc4)c3)cc21 + CC(C)C[C@H](NC(=O)[C@H](Cc1ccccc1)NC(=O)c1cnccn1)B(O)O [Bortezomib] (partner 0.002 µM)
How it was run: as §1

[4] = compound: CCn1c(-c2nonc2N)nc2cnc(Oc3cccc(NC(=O)c4ccc(OCCN5CCOCC5)cc4)c3)cc21 + C[C@]1(O)C[C@@H](c2nc(-c3ccc4ccc(-c5ccccc5)nc4c3)c3c(N)nccn32)C1 [Linsitinib] (partner 1 µM)
How it was run: as §1

Cell Line	relative viability ([1]; first compound 0.04 µM)	relative viability ([1]; first compound 0.1265 µM)	relative viability ([1]; first compound 0.4 µM)	relative viability ([1]; first compound 1.265 µM)	relative viability ([1]; first compound 4 µM)	relative viability ([2]; first compound 0.04 µM)	relative viability ([2]; first compound 0.1265 µM)	relative viability ([2]; first compound 0.4 µM)	relative viability ([2]; first compound 1.265 µM)	relative viability ([2]; first compound 4 µM)	relative viability ([3]; first compound 0.04 µM)	relative viability ([3]; first compound 0.1265 µM)	relative viability ([3]; first compound 0.4 µM)	relative viability ([3]; first compound 1.265 µM)	relative viability ([3]; first compound 4 µM)	relative viability ([4]; first compound 0.04 µM)	relative viability ([4]; first compound 0.1265 µM)	relative viability ([4]; first compound 0.4 µM)	relative viability ([4]; first compound 1.265 µM)	relative viability ([4]; first compound 4 µM)
HCC-44	1.01	1.06	0.895	0.823	0.919	0.932	0.956	0.975	1.05	0.85	0.889	0.902	0.56	0.305	0.248	0.671	0.709	0.684	0.538	0.509
A-427	0.873	0.9	0.915	0.872	0.826	0.795	0.991	1.01	0.911	1.05	1.16	0.952	0.892	0.946	0.475	1.2	1.16	1.15	1.06	1.06
NCI-H2023	0.987	0.941	0.962	1.03	1.12	0.716	0.765	0.749	0.527	0.763	1.25	0.918	0.621	0.504	0.394	0.802	0.694	0.71	0.566	0.482
NCI-H647	1.21	0.968			1.04	1.27	1.04		0.802	1.09	0.847	0.654	0.614	0.536	0.631	0.993	1	1.01	0.729	0.558
IA-LM	0.733	0.806	0.646	0.654	0.695	0.85	0.781	0.736	0.923	0.893	1.31	0.972	0.99	0.795	0.811	0.95	0.8	0.658	0.54	0.681
NCI-H3122	1.02	0.996	0.997	0.987	1.03	1.11	0.992	1	1.03	0.961	1.05	1.01	0.93	0.691	0.738	1.04	0.985	0.991	1	0.934
NCI-H520	1.16	1.01	0.969	0.96	1.03	0.846	0.862	0.857	0.588	0.729	0.749	0.614	0.537	0.349	0.239	1.07	1.15	1.12	0.565	0.415
NCI-H1755	1.01	0.947	0.955	0.606	0.889	1.07	0.93	0.981	0.924	1.1	0.97	0.781	0.649	0.533	0.512	1.08	1.01	0.936	0.963	0.937
NCI-H1734	0.852	0.839	0.856		0.907	1.03	1.07	1.08		1.04	0.889	0.837	0.511	0.412	0.35	1.06	0.796	0.807	0.648	0.485
EPLC-272H	0.973	1.05	1.11	1.07	1.31	0.854	0.807	0.853	0.913	0.975	1.02	1.21	0.841	0.645	0.783	1.35	1.12	1.14	1.1	1.18
NCI-H2228	0.996	0.847	0.979	0.888	0.747	0.949	1.11	0.79	1.14	1.06	1.12	0.897	0.921	0.591	0.839	1.3	0.912	0.906	0.992	0.51
